Experiments:
[1] = tested on: Eosinophil peroxidase; assay: Uterine Eosinophil Peroxidase (EPO) Assay in ovariectomized rats; format: in vivo, Sprague Dawley rats; conditions: for Uterine Eosinophil peroxidase, Vmax: daily for 4 days, OVX rats
Protocol: (§1) In the examples illustrating the methods, a postmenopausal model was used in which effects of different treatments upon circulating lipids were determined.
(§2) Seventy-five day old female Sprague Dawley rats (weight range of 200 to 225 g) were obtained from Charles River Laboratories (Portage, Mich.). The animals were either bilaterally ovariectomized (OVX) or exposed to a Sham surgical procedure at Charles River Laboratories, and then shipped after one week. Upon arrival, they were housed in metal hanging cages in groups of 3 or 4 per cage and had ad libitum access to food (calcium content approximately 0.5%) and water for one week. Room temperature was maintained at 22.2°±1.7° C. with a minimum relative humidity of 40%. The photoperiod in the room was 12 hours light and 12 hours dark.
(§3) Dosing Regimen Tissue Collection. After a one week acclimation period (therefore, two weeks post-OVX) daily dosing with test compound was initiated. 17α-ethynyl estradiol or the test compound were given orally, unless otherwise stated, as a suspension in 1% carboxymethylcellulose or dissolved in 20% cyclodextrin. Animals were dosed daily for 4 days. Following the dosing regimen, animals were weighed and anesthetized with a ketamine: xylazine (2:1, V:V) mixture and a blood sample was collected by cardiac puncture. The animals were then sacrificed by asphyxiation with CO2, the uterus was removed through a midline incision, and a wet uterine weight was determined.
Uterine Eosinophil Peroxidase (EPO) Assay. Uteri were kept at 4° C. until time of enzymatic analysis. The uteri were then homogenized in 50 volumes of 50 mM Tris buffer (pH-8.0) containing 0.005% Triton X-100. Upon addition of 0.01% hydrogen peroxide and 10 mM O-phenylenediamine (final concentrations) in Tris buffer, increase in absorbance was monitored for one minute at 450 nm. The presence of eosonophils in the uterus is an indication of estrogenic activity of a compound. The maximal velocity of a 15 second interval was determined over the initial, linear portion of the reaction curve.
(§4) Source of Compound: 17α-ethynyl estradiol was obtained from Sigma Chemical Co., St. Louis, Mo.
As is expressed in the data below, estrogenicity also was assessed by evaluating the adverse response of eosinophil infiltration into the uterus.
(§5) The data presented in Table 1 below reflects the response of 5 to 6 rats per treatment.

[2] = tested on: serum cholesterol; assay: Serum cholesterol in ovariectomized rats (Cholesterol Analysis); format: in vivo, Sprague Dawley rats; conditions: for Serum Cholest. % Decrease verses ovariectomized controls: daily for 4 days, OVX rats
Protocol: as §1, §2, §3
Cholesterol Analysis. Blood samples were allowed to clot at room temperature for 2 hours, and serum was obtained following centrifugation for 10 minutes at 3000 rpm. Serum cholesterol was determined using a Boehringer Mannheim Diagnostics high performance cholesterol assay. Briefly the cholesterol was oxidized to cholest-4-en-3-one and hydrogen peroxide. The hydrogen peroxide was then reacted with phenol and 4-aminophenazone in the presence of peroxidase to produce a p-quinone imine dye, which was read spectrophotemetrically at 500 nm. Cholesterol concentration was then calculated against a standard curve.
as §4
(§6) Data presented in Table 1 below show comparative results among ovariectomized rats, rats treated with 17α-ethynyl estradiol (EE2; an orally available form of estrogen), and rats treated with certain compounds of the instant invention. […] This uterine response to estrogen is well recognized in the art.
as §5

[3] = tested on: femur; assay: Osteoporosis Test Procedure: bone protection in ovariectomized rats, 35 days oral; format: in vivo; conditions: for Femur BMD % protection / Femur. % Protection (x-ray image): 35 days, relative to ovariectomy
Protocol: Following the General Preparation Procedure, infra, the rats are treated daily for 35 days (6 rats per treatment group) and sacrificed by carbon dioxide asphyxiation on the 36th day. The 35 day time period is sufficient to allow maximal reduction in bone density, measured as described herein. At the time of sacrifice, the uteri are removed, dissected free of extraneous tissue, and the fluid contents are expelled before determination of wet weight in order to confirm estrogen deficiency associated with complete ovariectomy. […] The uteri are then placed in 10% neutral buffered formalin to allow for subsequent histological analysis. The right femurs are excised and digitilized x-rays generated and analyzed by an image analysis program (NIH image) at the distal metaphysis. The proximal aspect of the tibiae from these animals are also scanned by quantitative computed tomography. In accordance with the above procedures, compounds of the instant invention and ethynyl estradiol (EE2) in 20% hydroxypropyl β-cyclodextrin are orally administered to test animals. Distal femur metaphysis and proximal tibiae data are the results of formula I compound treatments compared to intact and ovariectomized test animals. Results are reported as percent protection relative to ovariectomy in Table 2 below.

[4] = tested on: uterus; assay: Uterine weight in ovariectomized rats, 4 days daily oral dosing (postmenopausal model); format: in vivo, Sprague Dawley rats; conditions: for Uterine Weight % Increase verses ovariectomized controls: daily for 4 days, OVX rats
Protocol: as §1, §2, §3, §4, §6, §5

[5] = tested on: MCF-7 breast adenocarcinoma cells; assay: MCF-7 Proliferation Assay (tritiated thymidine incorporation); format: cell-based; conditions: Homo sapiens, MCF7; 48 hours with drug, then tritiated thymidine 4 hours; read-out: ED50 (MCF-7 proliferation)
Protocol: MCF-7 breast adenocarcinoma cells (ATCC HTB 22) were maintained in MEM (minimal essential medium, phenol red-free, Sigma, St. Louis, Mo.) supplimented with 10% fetal bovine serum (FBS) (V/V), L-glutamine (2 mM), sodium pyruvate (1 mM), HEPES {(N-[2-hydroxyethyl]piperazine-N'-[2-ethanesulfonic acid]10 mM}, non-essential amino acids and bovine insulin (1 μg/mL) (maintenance medium). Ten days prior to assay, MCF-7 cells were switched to maintenance medium supplemented with 10% dextran coated charcoal stripped fetal bovine serum (DCC-FBS) assay medium) in place of 10% FBS to deplete internal stores of steroids. MCF-7 cells were removed from maintenance flasks using cell dissociation medium (Ca^++ /Mg^++ free HBSS (phenol red-free) supplemented with 10 mM HEPES and 2 mM EDTA). Cells were washed twice with assay medium and adjusted to 80,000 cells/mL. Approximately […] (8,000 cells) were added to flat-bottom microculture wells (Costar 3596) and incubated at 37° C. in a 5% CO2 humidified incubator for 48 hours to allow for cell adherence and equilibration after transfer. Serial dilutions of drugs or DMSO as a diluent control were prepared in assay medium and […] to triplicate microcultures followed by […] assay medium for a final volume of […]. After an additional 48 hours at 37° C. in a 5% CO2 humidified incubator, microcultures were pulsed with tritiated thymidine (1 uCi/well) for 4 hours. Cultures were terminated by freezing at -70° C. for 24 hours followed by thawing and harvesting of microcultures using a Skatron Semiautomatic Cell Harvester. Samples were counted by liquid scintillation using a Wallace BetaPlace β counter. Results in Table 3 below show the ED50 (nM) for certain compounds of the instant invention: […]

| Structure (SMILES) | Uterine Eosinophil peroxidase, Vmax ([1]; 0.1 mg/kg PO) | Serum Cholest. % Decrease verses ovariectomized controls ([2]; 0.1 mg/kg PO) [%] | Uterine Weight % Increase verses ovariectomized controls ([4]; 0.1 mg/kg PO) [%] | Uterine Eosinophil peroxidase, Vmax ([1]; 1 mg/kg PO) | Uterine Eosinophil peroxidase, Vmax ([1]; 10 mg/kg PO) | Serum Cholest. % Decrease verses ovariectomized controls ([2]; 1 mg/kg PO) [%] | Serum Cholest. % Decrease verses ovariectomized controls ([2]; 10 mg/kg PO) [%] | IC50 [5] [nM] | Uterine Weight % Increase verses ovariectomized controls ([4]; 1 mg/kg PO) [%] | Uterine Weight % Increase verses ovariectomized controls ([4]; 10 mg/kg PO) [%] | further results |
| --- | --- | --- | --- | --- | --- | --- | --- | --- | --- | --- | --- |
| C#C[C@]1(O)CC[C@H]2[C@@H]3CCc4cc(O)ccc4[C@H]3CC[C@@]21C [EE2, 17α-ethynyl estradiol, reference compound] | 144.0 | 90.5 | 169.5 |  |  |  |  |  |  |  | eosinophil infiltration into the uterus, in words ([1]; stromal layer of ovariectomized rats): substantial, expected increase in eosinophil infiltration; serum cholesterol, in words ([2]; oral, compared to ovariectomized control animals): caused a decrease in serum cholesterol when orally administered at 0.1 mg/kg/day; Femur BMD % protection ([3]; 0.1 mg/kg oral): 76.3%; Femur. % Protection (x-ray image) ([3]; 0.1 mg/kg oral): 99.1%; prevention of bone loss, in words ([3]; oral, OVX rats, femur density): prevents this loss; uterine weight, in words ([4]; oral, compared to ovariectomized animals): uterine weight was substantially greater than the uterine weight of ovariectomized test animals |
| COc1ccc2c(c1)-c1sc3cc(OC)ccc3c1C2c1ccc(OCCN2CCCCC2)cc1 (stereo not drawn) [Example 1A, 10-[4-[2-(1-Piperidinyl)ethoxy]phenyl]-3,7-dimethoxybenzo[b]indeno[2,1-d]thiophene] | 7.2 | 59.1 | 19.2 | 30.3 | 21.9 | 47.7 | 68.7 | 200 | 21.6 | 26.8 |  |
| c1ccc2c(c1)-c1sc3ccccc3c1C2c1ccc(OCCN2CCCCC2)cc1 (stereo not drawn) [Example 1B, 10-[4-[2-(1-Piperidinyl)ethoxy]phenyl]benzo[b] indeno[2,1-d]thiophene] | 4.8 | 56.8 | 21 | 34.2 | 50.4 | 71.0 | 75.3 | 100 | 31.8 | 27.7 |  |
| Oc1ccc2c(c1)-c1sc3cc(O)ccc3c1C2c1ccc(OCCN2CCCCC2)cc1 (stereo not drawn) [Example 2, 10-[4-[2-(1-Piperidinyl)ethoxy]phenyl]-3,7-dihydroxy benzo[b]indeno[2,1-d]thiophene] | 4.8 | 41.4 | 14.6 | 24.0 | 23.4 | 52.5 | 66.3 | 0.1 | 25.6 | 18.3 |  |
| COc1ccc2c(c1)C(O)(c1ccc(OCCN3CCCCC3)cc1)c1c-2sc2cc(OC)ccc12 (stereo not drawn) [Example 3B, 10-[4-[2-(1-Piperidinyl)ethoxy]phenyl]-2,7-dimethoxy benzo[b]indeno[2,1-d]thiophen-10-ol] | 36.0 | 43.5 | 50.4 | 36.6 | 19.2 | 62.5 | 69.2 |  | 43.0 | 28.2 |  |
| COc1ccc2c3c(sc2c1)-c1ccccc1C3c1ccc(OCCN2CCCCC2)cc1 (stereo not drawn) [Example 5A, 10-[4-[2-(1-Piperidinyl)ethoxy]phenyl]-7-methoxy benzo[b]indeno[2,1-d]thiophene] | 6.4 | 59.1 | 33.8 | 35.4 | 31.8 | 74.4 | 60.3 |  | 63.5 | 92.9 |  |
| Cl.Oc1ccc2c3c(sc2c1)-c1ccccc1C3c1ccc(OCCN2CCCCC2)cc1 (stereo not drawn) [Example 6, 10-[4-[2-(1-Piperidinyl)ethoxy]phenyl]-7-hydroxy benzo[b]indeno[2,1-d]thiophene hydrochloride] | 2.9 | 1.3 | 32.5 | 3.7 | 29.8 | 40.6 | 69.9 | 10 | 67.4 | 54.0 | Femur BMD % protection ([3]; 0.01 mg/kg oral): 40.4%; Femur. % Protection (x-ray image) ([3]; 0.01 mg/kg oral): 53.8%; Femur BMD % protection ([3]; 0.1 mg/kg oral): 46.6%; Femur. % Protection (x-ray image) ([3]; 0.1 mg/kg oral): 39.2%; Femur BMD % protection ([3]; 1 mg/kg oral): 66.6%; Femur. % Protection (x-ray image) ([3]; 1 mg/kg oral): 73.4%; Femur BMD % protection ([3]; 10 mg/kg oral): 64.0%; Femur. % Protection (x-ray image) ([3]; 10 mg/kg oral): 48.2% |

Reference: US5856341A, “Benzo [B] indeno [2,1-D] thiophene compounds, intermediates, processes, compositions and methods” (Eli Lilly and Company, priority 1997, dated 1999)
